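These data come from cells grown in 96-well plates and exposed to compound for 48 hours at five concentrations. GI50 is the concentration that inhibits growth by half. TGI marks complete inhibition of growth.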
Legend:
Assay in all cases: growth of human tumour cells (NCI), 48 h
MALME-3M melanoma = system: MALME-3M melanoma
SN12C renal = system: SN12C renal
DU-145 prostate = system: DU-145 prostate
NCI-H460 lung = system: NCI-H460 lung
NCI/ADR-RES ovarian = system: NCI/ADR-RES ovarian
MDA-N = system: MDA-N
786-0 renal = system: 786-0 renal
M19-MEL melanoma = system: M19-MEL melanoma
LXFL 529 NSCLC = system: LXFL 529 NSCLC
COLO 205 colon = system: COLO 205 colon
DLD-1 colon = system: DLD-1 colon
DMS 114 small cell lung = system: DMS 114 small cell lung
SK-OV-3 ovarian = system: SK-OV-3 ovarian

Row | Structure (SMILES) | TGI (MALME-3M melanoma) | TGI (SN12C renal) | TGI (DU-145 prostate) | TGI (NCI-H460 lung) | TGI (NCI/ADR-RES ovarian) | TGI (MDA-N) | TGI (786-0 renal) | TGI (M19-MEL melanoma) | TGI (LXFL 529 NSCLC) | TGI (COLO 205 colon) | TGI (DLD-1 colon) | TGI (DMS 114 small cell lung) | TGI (SK-OV-3 ovarian) | GI50 (SK-OV-3 ovarian) | GI50 (MALME-3M melanoma) | GI50 (SN12C renal) | GI50 (DU-145 prostate) | GI50 (NCI-H460 lung) | GI50 (NCI/ADR-RES ovarian) | GI50 (COLO 205 colon)
1 | O=C(O)c1cc(=O)[nH]c(SCc2ccccc2)n1 | > 100 µM | > 100 µM | > 100 µM | > 100 µM | > 100 µM | > 100 µM | > 100 µM | – | – | – | – | – | – | – | – | – | – | – | – | –
2 | C=CCc1cc(-c2cc(CC=C)c(O)c(CNC)c2)cc(CNC)c1O | 33.6 µM | 31.3 µM | – | 30.1 µM | – | – | 29 µM | 27.2 µM | 28.5 µM | 33.5 µM | 29.3 µM | 30.4 µM | – | – | – | – | – | – | – | –
3 | CSc1nc(NC2OCC(OC(C)=O)C(OC(C)=O)C2OC(C)=O)c(N=C(C)C(C)=O)c(=O)[nH]1 (centres undefined) | > 100 µM | > 100 µM | – | > 100 µM | – | – | – | – | > 100 µM | > 100 µM | > 100 µM | > 100 µM | – | – | – | – | – | – | – | –
4 | O=Cc1cc([N+](=O)[O-])no1 | – | > 100 µM | > 100 µM | > 100 µM | > 100 µM | 52.6 µM | – | – | – | > 100 µM | – | – | > 100 µM | – | – | – | – | – | – | –
5 | O=C(C[C@H](NC(=O)OCc1ccccc1)C(=O)NC1Cc2ccccc2OC1=O)OCc1ccccc1 (some centres undefined) | > 100 µM | > 100 µM | > 100 µM | > 100 µM | > 100 µM | > 100 µM | – | – | – | > 100 µM | – | – | > 100 µM | – | – | – | – | – | – | –
6 | Cc1nc2c(n1C)C(=O)c1nc(CBr)[nH]c(=O)c1C2=O | – | > 100 µM | – | > 100 µM | – | – | – | > 100 µM | > 100 µM | > 100 µM | > 100 µM | > 100 µM | > 100 µM | – | – | – | – | – | – | –
7 | CCCCCCCCCCCCCCCc1ccc(OCC(O)CO)cc1 (centres undefined) | 46.8 µM | 33.2 µM | – | 53.6 µM | – | – | – | 33.4 µM | 68 µM | 59.3 µM | > 100 µM | 68.3 µM | > 100 µM | – | – | – | – | – | – | –
8 | CN(C)c1nc(N(C)C)nc(N(C)CN(C)c2ccc(Cl)cc2)n1 | > 100 µM | > 100 µM | – | > 100 µM | – | – | – | > 100 µM | > 100 µM | – | > 100 µM | > 100 µM | > 100 µM | – | – | – | – | – | – | –
9 | CS(=O)(=O)OC1CN2CCC1CC2 (centres undefined) | > 100 µM | > 100 µM | > 100 µM | > 100 µM | > 100 µM | > 100 µM | > 100 µM | – | – | > 100 µM | – | – | > 100 µM | – | – | – | – | – | – | –
10 | CCN(CC)CCCC(C)Nc1ccnc2cc3ccccc3cc12 (centres undefined) | 45.1 µM | > 100 µM | > 100 µM | 24.4 µM | > 100 µM | – | > 100 µM | – | – | 11.7 µM | – | – | 50 µM | – | – | – | – | – | – | –
11 | COc1ccc(C2CC(c3cccc(Nc4ccncc4)c3)=NN2c2ccc(Cl)cc2)cc1 (centres undefined) | 3.15 µM | 3.07 µM | 3.17 µM | 3.37 µM | 3.3 µM | – | – | – | – | 3.76 µM | – | – | 5.79 µM | 2.19 µM | 1.59 µM | 1.6 µM | 1.74 µM | 1.81 µM | 1.73 µM | 1.78 µM
